Data: publication PMC11406361, “Several orphan solute carriers functionally identified as organic cation transporters: Substrates specificity compared with known cation transporters” (The Journal of Biological Chemistry, 2024)

Assays:
[1] = molecular target: SLC38A10 (Homo sapiens, UniProt Q9HBR0)
[2] = molecular target: T1, SLC35F2 (Homo sapiens, UniProt Q8IXU6)
T1 sequence (Q8IXU6 1-374): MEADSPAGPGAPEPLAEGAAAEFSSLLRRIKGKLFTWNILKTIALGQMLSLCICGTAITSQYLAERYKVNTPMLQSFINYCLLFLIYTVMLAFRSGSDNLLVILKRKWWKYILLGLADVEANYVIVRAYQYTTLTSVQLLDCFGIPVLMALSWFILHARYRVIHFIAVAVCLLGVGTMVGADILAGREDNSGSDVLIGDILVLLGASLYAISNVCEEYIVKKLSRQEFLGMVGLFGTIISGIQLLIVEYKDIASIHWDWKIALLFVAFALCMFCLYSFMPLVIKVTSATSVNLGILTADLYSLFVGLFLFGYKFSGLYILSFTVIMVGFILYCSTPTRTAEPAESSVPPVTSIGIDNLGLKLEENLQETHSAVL

[3] = molecular target: T2, SLC35G3 (Homo sapiens, UniProt Q8N808); assay: Uptake ratio screen, SLC35G3-overexpressing HEK293 over empty vector cells; assay type: cell-based; set-up: by amplifying the entire gene-of-interest within the HEK293 genome via a long-range PCR; settings: 2.5 μM substrate, 2 min, HEK293
[4] = molecular target: T2, SLC35G3
[5] = molecular target: T3, SLC22A15 (Homo sapiens, UniProt Q8IZD6); assay: Uptake ratio screen, SLC22A15-overexpressing HEK293 over empty vector cells; assay type: cell-based; settings: 2.5 μM (nicotine 10 μM), 2 min
T3 construct: by amplifying the entire gene-of-interest within the HEK293 genome via a long-range PCR
Description: (§1) Typically discussed substrates of the proton organic-cation antiporter ([14]) are highlighted in dark green in Figure 1.
(§2) In preparation for transport experiments, 24-well plates were pre-coated with poly-D-lysine (Sigma-Aldrich) and 300,000 cells were plated per well and incubated for 48 h. Firstly, the 24-well plate was placed on a heating plate at 37 °C, and the cells were washed with 37 °C HBSS^+ buffer (Hank’s balanced salt solution supplemented with 10 mM Hepes and adjusted to pH 7.4; Thermo Fisher Scientific). The substance-of-interest, which was diluted in 37 °C HBSS^+ to a desired concentration, was added to the cells for exactly 2 min. […] The uptake was stopped with ice-cold HBSS^+, and the 24-well plate was removed from the heating plate. The cells were washed twice with the cold HBSS^+ before they were lysed for 15 min with 80% (v/v) acetonitrile containing the respective internal standard for mass spectrometry. For variations in seeded cell numbers between the cell lines, several wells were lysed in RIPA buffer and used for total protein quantification using a bicinchoninic assay ([74]) and bovine serum albumin as calibration.
The intracellular drug concentrations after transport experiments were analyzed by high-performance liquid chromatography coupled to tandem mass spectrometry analysis. The HPLC consisted of a Shimadzu Nexera HPLC System with a SIL-30AC autosampler, a LC-30AD pump, a CTO-20AC column oven, and a CBM-20A controller (Shimadzu). The reverse-phase chromatography of compounds was accomplished with a Brownlee SPP RP-Amide column with 4.6 × 100 mm inner dimensions, a particle size of 2.7 μm, and a preceding Phenomenex C-18 guard column. The mobile phase was composed of an organic additive with acetonitrile:methanol 6:1 (v/v) in total concentrations between 3% and 50% (v/v) and 0.1% (v/v) formic acid in the aqueous component of the eluent. During separation, the column oven was held at 40 °C and the mobile phase was maintained at a flow rate of 300 or 400 μl/min. After separation, the detection of substances was performed with an API 4000 tandem mass spectrometer (AB SCIEX, https://sciex.com/support/software-support/software-downloads), followed by quantification of results with the Analyst software (AB SCIEX, version 1.6.2). The composition of chromatographic conditions, as well as detailed mass spectrometric detection parameters, are listed in Table S5.
(§3) Transport-mediated net uptake was determined as fold-increase of transporter-overexpressing cells over empty vector–transfected control cells.

[6] = molecular target: T4, SLC35E2A (Homo sapiens, UniProt P0CK97); assay: Uptake ratio screen, SLC35E2A-overexpressing HEK293 over empty vector cells; assay type: cell-based; set-up: by amplifying the entire gene-of-interest within the HEK293 genome via a long-range PCR; settings: 2.5 μM, 2 min
Description: as §1, §2
The intracellular drug concentrations after transport experiments were analyzed by high-performance liquid chromatography coupled to tandem mass spectrometry analysis. The HPLC consisted of a Shimadzu Nexera HPLC System with a SIL-30AC autosampler, a LC-30AD pump, a CTO-20AC column oven, and a CBM-20A controller (Shimadzu). The reverse-phase chromatography of compounds was accomplished with a Brownlee SPP RP-Amide column with 4.6 × 100 mm inner dimensions, a particle size of 2.7 μm, and a preceding Phenomenex C-18 guard column. […] After separation, the detection of substances was performed with an API 4000 tandem mass spectrometer (AB SCIEX, https://sciex.com/support/software-support/software-downloads), followed by quantification of results with the Analyst software (AB SCIEX, version 1.6.2). […]
as §3

[7] = molecular target: T4, SLC35E2A

T2 sequence (Q8N808 whole entry): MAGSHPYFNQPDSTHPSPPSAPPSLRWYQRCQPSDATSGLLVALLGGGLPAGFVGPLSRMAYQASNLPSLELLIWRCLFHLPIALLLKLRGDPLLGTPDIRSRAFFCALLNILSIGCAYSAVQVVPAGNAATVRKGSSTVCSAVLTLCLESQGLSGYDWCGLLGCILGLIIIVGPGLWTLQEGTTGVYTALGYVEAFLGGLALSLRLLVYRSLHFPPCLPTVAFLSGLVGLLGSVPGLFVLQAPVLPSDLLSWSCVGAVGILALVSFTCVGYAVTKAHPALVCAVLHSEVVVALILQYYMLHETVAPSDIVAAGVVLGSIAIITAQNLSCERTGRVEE
T4 sequence (P0CK97 whole entry): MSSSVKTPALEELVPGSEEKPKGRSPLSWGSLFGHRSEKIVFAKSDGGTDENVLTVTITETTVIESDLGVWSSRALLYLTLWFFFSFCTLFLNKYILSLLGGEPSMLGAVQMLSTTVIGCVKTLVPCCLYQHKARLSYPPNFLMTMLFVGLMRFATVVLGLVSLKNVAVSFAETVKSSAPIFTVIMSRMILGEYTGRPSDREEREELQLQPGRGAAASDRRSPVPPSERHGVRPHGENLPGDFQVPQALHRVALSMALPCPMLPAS
T3 sequence (Q8IZD6 whole entry): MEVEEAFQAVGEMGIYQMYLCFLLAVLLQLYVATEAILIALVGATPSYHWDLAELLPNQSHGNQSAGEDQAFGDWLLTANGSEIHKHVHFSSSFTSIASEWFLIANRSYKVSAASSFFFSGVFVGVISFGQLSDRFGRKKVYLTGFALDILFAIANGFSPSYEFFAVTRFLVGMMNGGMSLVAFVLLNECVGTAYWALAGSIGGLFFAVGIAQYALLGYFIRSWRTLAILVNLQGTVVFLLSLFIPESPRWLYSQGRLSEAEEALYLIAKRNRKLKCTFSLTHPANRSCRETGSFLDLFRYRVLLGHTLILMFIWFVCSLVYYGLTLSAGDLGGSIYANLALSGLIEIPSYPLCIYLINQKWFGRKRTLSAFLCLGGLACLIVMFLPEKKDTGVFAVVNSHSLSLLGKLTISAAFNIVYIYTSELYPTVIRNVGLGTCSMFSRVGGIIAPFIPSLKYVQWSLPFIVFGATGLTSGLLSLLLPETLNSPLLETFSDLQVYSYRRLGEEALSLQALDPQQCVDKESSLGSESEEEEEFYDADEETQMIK
Sequence of SLC38A10 (Q9HBR0 whole entry): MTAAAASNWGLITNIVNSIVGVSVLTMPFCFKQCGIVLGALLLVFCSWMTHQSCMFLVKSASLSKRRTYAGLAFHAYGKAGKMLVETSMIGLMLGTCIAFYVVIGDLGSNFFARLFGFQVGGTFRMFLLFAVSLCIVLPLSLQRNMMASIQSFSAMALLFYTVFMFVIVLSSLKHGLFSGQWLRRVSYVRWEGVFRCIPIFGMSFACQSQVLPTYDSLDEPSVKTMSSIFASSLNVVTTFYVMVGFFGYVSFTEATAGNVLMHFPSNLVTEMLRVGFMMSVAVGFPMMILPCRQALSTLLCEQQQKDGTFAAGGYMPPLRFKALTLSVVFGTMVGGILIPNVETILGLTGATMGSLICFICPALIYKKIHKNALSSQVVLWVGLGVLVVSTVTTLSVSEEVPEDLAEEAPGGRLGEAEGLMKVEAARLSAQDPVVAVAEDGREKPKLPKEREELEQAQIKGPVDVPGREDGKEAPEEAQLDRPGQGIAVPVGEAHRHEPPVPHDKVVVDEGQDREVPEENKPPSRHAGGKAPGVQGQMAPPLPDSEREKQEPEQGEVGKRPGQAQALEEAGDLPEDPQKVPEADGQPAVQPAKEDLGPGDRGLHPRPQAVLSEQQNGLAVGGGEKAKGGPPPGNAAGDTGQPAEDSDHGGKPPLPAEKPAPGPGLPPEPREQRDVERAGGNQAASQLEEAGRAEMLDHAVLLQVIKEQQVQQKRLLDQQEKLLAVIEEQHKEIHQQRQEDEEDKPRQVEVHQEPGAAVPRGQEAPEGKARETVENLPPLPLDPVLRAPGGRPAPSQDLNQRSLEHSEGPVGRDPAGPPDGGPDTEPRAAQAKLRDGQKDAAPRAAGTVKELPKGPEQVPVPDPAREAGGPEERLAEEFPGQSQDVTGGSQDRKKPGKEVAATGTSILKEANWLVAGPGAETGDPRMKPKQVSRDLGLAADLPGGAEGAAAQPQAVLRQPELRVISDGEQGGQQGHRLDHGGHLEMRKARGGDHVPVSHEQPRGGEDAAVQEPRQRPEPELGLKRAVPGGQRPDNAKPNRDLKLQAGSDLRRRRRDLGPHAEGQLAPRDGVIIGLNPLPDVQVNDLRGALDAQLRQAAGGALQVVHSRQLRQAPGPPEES

Uptake by SLC35E2A (in words) [6]	Clint (±SEM) [7]	Compound	Clint (±SEM) [1]	Vmax (±SEM) ([2]; SLC35F2, HEK293, net uptake over empty vector cells)	Clint (±SEM) ([2]; human)	Km ([2]; read-out: KM (±SEM), SLC35F2, HEK293, net uptake over empty vector cells) [µM]	Uptake data for SLC35G3, mean value (fold-increase over empty vector control) [3]	Clint (±SEM) [4]	Uptake by SLC22A15 (in words) [5]
–	–	Clc1cccc(Cl)c1N=C1NCCN1 [Clonidine]	2.64 (±3.0) μl × mg protein^-1 × min^-1	304 (±57.7) pmol × mg protein^-1 × min^-1	2.06 (±1.62) μl × mg protein^-1 × min^-1	147	1.54	4.85 (±3.17) μl × mg protein^-1 × min^-1	significantly increased the uptake
relatively high activity	1.79 (±1.06) μl × mg protein^-1 × min^-1	c1cnc2cc3c(cc2n1)[C@@H]1CNC[C@H]3C1 [Varenicline]	–	–	–	–	1.60	–	significantly increased the uptake
